In article PMC5958115, “A novel small molecule chaperone of rod opsin and its potential therapy for retinal degeneration” (Nature Communications, 2018):

What was measured:
Abca4−/−Rdh8−/− mice = assay: Bright light-induced retinal degeneration (SD-OCT, HE staining); format: in vivo, mouse; settings: 50 or 200 mg kg^−1 bw i.p. 30 min before 10,000 lux for 30 min; day 7
Protocol: Abca4^−/−Rdh8^−/− [42] mice with a 129 Sv/Ev or C57BL/6 mixed background were used for light-induced retinal degeneration assays. […] Male and female C57BL/6 mice (Jackson Laboratory, Bar Harbor, ME) at 6 weeks of age were used to test the effects of YC-001 treatment on the retinoid cycle and bw as well as to determine parenterally administrated YC-001 entering the eyes. YC-001 was dissolved in DMSO at 80–160 mg mL^−1, and the solution was provided to mice by i.p. injection. All mice were housed and maintained in a 12 h light (≤10 lux)/12 h dark cycle in the Animal Resource Center at the School of Medicine, CWRU. […]
Retinal degeneration was initiated by exposing Abca4^−/−Rdh8^−/− mice for 30 min to white light with an intensity of 10,000 lux (150-W spiral lamp, Hampton Bay, Home Depot, Atlanta, GA USA)[43]. […] Retinal structures were analyzed by SD-OCT seven days after bright light exposure. […]
To assess the effect of YC-001 treatment on Abca4^−/−Rdh8^−/− mice following bright light-induced retinal degeneration, we performed ultrahigh-resolution SD-OCT (Bioptigen, Morrisville, NC) for in vivo imaging of mouse retinas. […] To measure changes to photoreceptors in the retinas challenged with bright light and assess the effect of YC-001 on retinal protection, the thickness of the ONL was measured along the scanned SD-OCT image at 8 points from the nasal to temporal end of the retina. […]

P23H opsin = settings: cited from earlier work

Structure (SMILES): O=C1OCC(c2ccc(Cl)s2)=C1c1cccs1 [YC-001]
- protection of the ONL from light-induced damage (Abca4−/−Rdh8−/− mice): dose-dependent protection of the ONL
- effect of co-treatment with scriptaid (P23H opsin): synergistic effect
